{
  "source": "patent US20220110902A1",
  "about": "“Methods of treating amyloid-beta peptide diseases” (Ecole Polytechnique Federale de Lausanne, priority 2016, published 2022)",
  "key": {"[1]": {"system": "SH-SY5Y neuroblastoma cell line expressing the APP Swedish K670N/M671L double mutation (APPSwe)", "assay": "Immunostaining of intracellular Aβ deposits in APPSwe SH-SY5Y cells", "format": "cell-based, human", "experimental": "The SH-SY5Y neuroblastoma cell line expressing the APP Swedish K670N/M671L double mutation (APPSwe) was a kind gift of Prof. Cedazo-Minguez (Karolinska Institute, Sweden). Cells were grown in DMEM/F-12, supplemented with 10% fetal bovine serum (FBS, Gibco), GlutaMAX (100×, Gibco) and penicillin/streptomycin (1×, Gibco). Cells were selected in 4 μg/mL Geneticin® Selective Antibiotic (G418 Sulfate, Sigma) and grown for three generations before experiments with cells plated and passaged at 4×10^3 cells/ml and 60% confluence, respectively. Cells were cultured at 37° C. under a 5% CO2 atmosphere and tested for mycoplasma using Mycoprobe (#CUL001B, R&D systems) following the manufacturer's instructions. Cells were treated with 10 μg/mL dox, NR 1 or 3 mM, ISRIB 0.5 μM (Sigma), as indicated for 24 hours before cell harvesting or fixation. For the immunostaining, cells were fixed with 1× Formal-Fixx (Thermo Scientific) for 15 min. After 15 min permeabilization with 0.1% Triton X-100, cells were blocked in PBS supplemented with 5% fetal bovine serum for 1 hour and immunostained overnight, at 4° C., with the anti-β-Amyloid 1-42 (1:100, Millipore AB5078P). The secondary antibody was coupled to the Alexa-488 fluorochrome (Thermo Scientific), and nuclei were stained with DAPI (Invitrogen, D1306). After washing in PBS, cell slides were mounted with Dako mounting medium (Dako, S3023) and examined with a Zeiss LSM 700 confocal microscope (Carl Zeiss MicroImaging) equipped with a Plan-Apochromat 40×/1.3 NA oil immersion objective lens using a 488 nm laser. Laser power was set at the lowest intensity allowing clear visualization of the signal. Imaging settings were maintained with the same parameters for comparison between different experimental conditions.\nThe SH-SY5Y neuroblastoma cell line expresses the APP Swedish K670N/M671L double mutation (APPSwe) (Zheng et al., 2011) and accumulates intracellular Aβ amyloid aggregates. Cells were grown in DMEM/F-12, supplemented with 10% fetal bovine serum (FBS, Gibco), GlutaMAX (100×, Gibco) and penicillin/streptomycin (1×, Gibco). Cells were selected in 4 μg/mL Geneticin® Selective Antibiotic (G418 Sulfate, Sigma) and grown for three generations before experiments with cells plated and passaged at 4×10{right arrow over ( )}3 cells/ml and 60% confluence, respectively. Cells were cultured at 37° C. under a 5% CO2 atmosphere and tested for mycoplasma using Mycoprobe (#CUL001B, R&D systems), following the manufacturer's instructions. Myriocin was dissolved in DMSO.\nCells were treated with 10 uM Myriocin and Fumonisin B1 for 24 hours before harvesting or fixation (FIG. 3A). For immunostaining, cells were fixed with 1× Formal-Fixx (Thermo Scientific) for 15 min. […]"}, "SH-SY5Y(APPSwe) cells": {"system": "SH-SY5Y(APPSwe) cells", "assay": "Western-blot and transcript analysis in SH-SY5Y(APPSwe) cells", "format": "cell-based, human", "conditions": "ISRIB 0.5 μM with dox 10 μg/mL, 24 h", "experimental": "Human: Total RNA was extracted using guanidine-isothiocyanate lysis (PureLink, Ambion, Waltham, Mass.) from cortex samples, and RNA integrity and concentration was verified using Bioanalysis (Agilent, Santa Clara, Calif.). Samples were randomized based on diagnostic group and assayed in triplicate on a real-time PCR cycler (ABI 7500, Applied Biosystems, Foster City) in 96-well optical plates. qPCR was performed using Taqman hydrolysis probe primer sets (Applied Biosystems) specific for the following human transcripts: HSPA9, HSPD1, YMEIL1, DNM1L, BECN1, SQSTM1, PARK2, COX5A, CYC1. A primer set specific for human GAPDH was used as a control housekeeping transcript. For the APPSwe-expressing SH-SY5Y cell line, total RNA was extracted […] using TriPure RNA isolation reagent, and expression of selected transcripts was analyzed using the LightCycler480 system (Roche) and LightCycler® 480 SYBR Green I Master reagent (Roche). The GAPDH gene was used as housekeeping reference. The ddCT method was employed to determine relative levels of each amplicon. […] The SH-SY5Y neuroblastoma cell line expressing the APP Swedish K670N/M671L double mutation (APPSwe) was a kind gift of Prof. Cedazo-Minguez (Karolinska Institute, Sweden). Cells were grown in DMEM/F-12, supplemented with 10% fetal bovine serum (FBS, Gibco), GlutaMAX (100×, Gibco) and penicillin/streptomycin (1×, Gibco). Cells were selected in 4 μg/mL Geneticin® Selective Antibiotic (G418 Sulfate, Sigma) and grown for three generations before experiments with cells plated and passaged at 4×10^3 cells/ml and 60% confluence, respectively. Cells were cultured at 37° C. under a 5% CO2 atmosphere and tested for mycoplasma using Mycoprobe (#CUL001B, R&D systems) following the manufacturer's instructions. Cells were treated with 10 μg/mL dox, NR 1 or 3 mM, ISRIB 0.5 μM (Sigma), as indicated for 24 hours before cell harvesting or fixation. For the immunostaining, cells were fixed with 1× Formal-Fixx (Thermo Scientific) for 15 min. […]"}, "GMC101 worms [2]": {"system": "GMC101 worms", "assay": "Worm phenotypic assays in GMC101: mobility, paralysis and death score", "format": "in vivo, C. elegans", "conditions": "GMC101, period of 4 days; UA 20 uM and 50 uM", "experimental": "Doxycycline was obtained from Sigma-Aldrich and dissolved in water. For experiments, a final concentration of 15 μg/mL was used. Olaparib (AZD2281) was dissolved in DMSO to experimental concentrations of 300 nM. Nicotinamide Riboside triflate (NR) was custom synthesized by Novalix (www.novalix-pharma.com/) and dissolved in water, and used at a final concentration of 1 mM. Compounds were added just before pouring the plates. For phenotyping experiments, parental F0 L4 worms were allowed to reach adulthood and lay eggs on the treatment plates. The deriving F1 worms were therefore exposed to compounds during the full life from eggs until death. For RNA analysis experiments, synchronized L1 worms were exposed to the compounds until harvest. To ensure a permanent exposure to the compound, plates were changed twice a week.\nMobility: C. elegans movement analysis was performed as described, starting from day 1 of adulthood, using the Movement Tracker software. The experiments were repeated at least twice.\nParalysis and death score: 5 L4 worms per condition were allowed to reach adulthood and lay eggs on the treatment plates. 45 to 60 deriving F1 worms per condition were manually scored for paralysis after poking, as already described. Worms that were unable to respond to any, repeated stimulation, were scored as dead. Results are representative of the data obtained in at least three independent experiments.\n(§1) During the assays, animals were exposed to Myriocin (dissolved in DMSO) from the egg stage on plates seeded with live HT115 E. coli bacteria. Control plates seeded with the same bacteria were prepared with the corresponding concentrations of DMSO. The day of the experiment (day 1 of adulthood, 3 days after hatching), the GMC101 population was shifted to 25° C. in order to induce the amyloid deposition in the body wall muscle. ˜1000 worms were used for western blotting assays.\nC. elegans movement analysis was performed as described (Mouchiroud et al., 2016), using the Movement Tracker software. ˜50 adult worms were used per condition for movement assays.\nTo score for paralysis and death, 50 worms per condition were manually scored after poking as described (McCool et al., 2012; Florez-McClure et al., 2007). Worms that were unable to respond to repeated stimulation were scored as dead.\nas §1, with “the compound UA” for “Myriocin (dissolved in DMSO)”, “from” for “from the”, “DMSO (0.1%).” for “DMSO.”, “˜50 adult” for “˜1000”, “per conditions.” for “for western blotting assays.”\nC. elegans movement analysis was performed as described in (Mouchiroud et al., 2016), using the Movement Tracker software within a period of 4 days."}, "GMC101 worms [3]": {"system": "GMC101 worms", "assay": "Western-blot of amyloid aggregation in GMC101 worms", "format": "in vivo, C. elegans", "conditions": "GMC101, 24 h after shift to 25° C.; UA 20 uM and 50 uM", "experimental": "C. elegans: Worms were lysed by sonication with RIPA buffer containing protease and phosphatase inhibitors (Roche), and analyzed by SDS-PAGE and western blot. The concentration of extracted protein was determined by using the Bio-Rad Protein Assay. Proteins were detected using the following antibodies: anti-β-actin (Sigma), anti-tubulin (Santa Cruz), atp-5, ucr-1 (Oxphos cocktail, Abcam), anti-β-Amyloid, 1-16 (6E10) (BioLegend). In addition to the housekeeping proteins, loading was monitored by Ponceau Red to ensure a homogeneous loading. Pixel intensity was quantified by using ImageJ software. Each immunoblot experiment was repeated at least twice using 3 biological replicates each containing approximately 1000 worms.\nas §1\n(§2) Worms were lysed by sonication with RIPA buffer containing protease and phosphatase inhibitors (Roche), and analyzed by western blot. The concentration of extracted protein was determined by the Bio-Rad Protein Assay. Proteins were detected using the following antibodies: anti-β-actin (Sigma) and anti-β-Amyloid (BioLegend). In addition to the housekeeping proteins, loading was monitored by Ponceau Red to ensure a homogeneous loading. The immunoblot experiment employed 3 biological replicates, each containing approximately 1000 worms.\nas §2, with “extracted proteins” for “extracted protein”, “3 biologicals” for “3 biological”\nThe GMC101 worms were recovered 24 h after being shifted at 25° C. The population was treated with UA at two different concentrations, ie 20 uM and 50 uM."}, "C. elegans": {"system": "C. elegans", "conditions": "cited from earlier work"}, "[4]": {"system": "mouse models of age-related decline of muscle function", "conditions": "mouse models of age-related decline of muscle function, and young rats; cited from earlier work"}, "GMC101 worms [5]": {"system": "GMC101 worms", "assay": "Development and growth of GMC101 worms", "format": "in vivo, C. elegans", "conditions": "GMC101, eggs to day 1 of adulthood; dox 15 μg/mL", "experimental": "Development: 50 adult worms per condition were transferred on NGM agar plates (10 worms per plate) and allowed to lay eggs for 3 h. Then they were removed and the number of eggs per plate was counted. 72 h later, the number of L1-L3 larvae, L4 and adult worms was counted. The experiment was done twice with five individual plates."}},
  "note": "Entries after “also recorded” stand apart in the source; their conditions may differ.",
  "data": [
    {"smiles": "CCCC[C@H](C)[C@@H](OC(=O)C[C@H](CC(=O)O)C(=O)O)[C@@H](C[C@H](C)C[C@@H](O)CCCC[C@@H](O)C[C@H](O)[C@H](C)N)OC(=O)C[C@H](CC(=O)O)C(=O)O", "note": "[Fumonisin B1, (2S,2'S)-2,2′-{[(5S,6R,7R,9R,11S,16R,18S,19S)-19-Amino-11,16,18-trihydroxy-5,9-dimethylicosane-6,7-diyl]bis[oxy(2-oxoethane-2,1-diyl)]}disuccinic acid]", "values": [
      {"measurement": "intracellular Aβ deposits", "setting": "[1]; 10 uM, 24 hours", "value": "significantly reduced; also recorded: markedly reduced"}
    ]},
    {"smiles": "O=C(COc1ccc(Cl)cc1)NC1CCC(NC(=O)COc2ccc(Cl)cc2)CC1", "note": "(centres unmarked) [ISRIB, reference compound]", "values": [
      {"measurement": "amyloid clearance by dox after ISRIB pretreatment", "setting": "[1]; ISRIB 0.5 μM with dox 10 μg/mL, 24 h", "value": "prevented amyloid clearance by dox"},
      {"measurement": "dox-mediated induction of ATF4 target genes CHOP and CHAC1", "setting": "SH-SY5Y(APPSwe) cells", "value": "hampered the dox-mediated induction"}
    ]},
    {"smiles": "O=c1oc2cc(O)ccc2c2ccc(O)cc12", "note": "[UA, 3,8-Dihydroxyurolithin]", "values": [
      {"measurement": "spontaneous movement (mobility)", "setting": "GMC101 worms [2]", "value": "dose-dependently increased; also recorded: dose-dependent increase"},
      {"measurement": "accumulation of amyloid-β aggregates", "setting": "GMC101 worms [3]", "value": "dose-dependently reduced; also recorded: dose-dependent reduction"},
      {"measurement": "mitochondrial respiratory capacity", "setting": "C. elegans; C. elegans during aging", "value": "maintaining mitochondrial respiratory capacity"},
      {"measurement": "accumulation of dysfunctional mitochondria with age", "setting": "C. elegans; C. elegans", "value": "prevent the accumulation of dysfunctional mitochondria with age"},
      {"measurement": "activity during aging (mobility and pharyngeal pumping)", "setting": "C. elegans; C. elegans", "value": "maintained normal activity during aging"},
      {"measurement": "lifespan", "setting": "C. elegans; C. elegans", "value": "extended lifespan"},
      {"measurement": "exercise capacity", "setting": "[4]", "value": "significantly improved exercise capacity"}
    ]},
    {"smiles": "C[C@H]1c2cccc(O)c2C(=O)C2=C(O)[C@]3(O)C(=O)C(C(N)=O)=C(O)[C@@H](N(C)C)[C@@H]3[C@@H](O)[C@@H]21", "note": "[dox, doxycycline]", "values": [
      {"measurement": "development and growth delay", "setting": "GMC101 worms [5]", "value": "without causing major development and growth delays"}
    ]}
  ]
}
